Molecules are shown by their SMILES. Like-named read-outs stand apart in the source and are kept apart here.

In this assay the test system is rgRSV224 virus. As to the kind of experiment: Antiviral activity: inhibition of rgRSV224 (GFP-expressing RSV) replication in HeLa cells. Format: cell-based, respiratory syncytial virus. Particulars: human respiratory syncytial virus, HeLa, 72 h. The essentials:
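HeLa cells infected with GFP-expressing rgRSV224 at MOI 0.02 alongside 4-fold compound dilutions in duplicate (0.5% DMSO). Incubated 3 days at 37 °C; EC50 taken as 50% inhibition of GFP expression by laser microscopy. CC50 measured in parallel uninfected cells by ATP content after 3 days; SI = CC50/EC50.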

Setting [1] is: read-out: RSV-wt_pEC50, rgRSV224 (MOI=0.02) in HeLa cells, GFP expression three days post-virus exposure.

As to `N#CCCCn1c(CN2C(=O)C3(CCN(C(=O)OC4CCC4)CC3)c3ccncc32)cc2cc(Cl)ccc21` [Compound 103, Cyclobutyl 1′-{[5-chloro-1-(3-cyanopropyl)-1H-indol-2-yl]-methyl}-2′-oxo-1′,2′-dihydro-1H-spiro[piperidine-4,3′-pyrrolo[2,3-c]pyridine]-1-carboxylate], the EC50 under setting [1] is 0.263 nM.
Turning to `CC(C)(O)C(=O)N1CCC2(CC1)C(=O)N(Cc1cc3cc(Cl)ccc3n1CCCCF)c1cnccc12` [Compound 106, 1′-{[5-Chloro-1-(4-fluorobutyl)-1H-indol-2-yl]methyl}-1-(2-hydroxy-2-methylpropanoyl)spiro[piperidine-4,3′-pyrrolo-[2,3-c]pyridin]-2′(1′H)-one], the EC50 under setting [1] is 0.24 nM.
Still for that read-out and setting: under `CC(C)(O)C(=O)N1CCC2(CC1)C(=O)N(Cc1nc3cc(Cl)ccc3n1CCCC#N)c1cnccc12` [Compound 107, 4-(5-Chloro-2-{[1-(2-hydroxy-2-methylpropanoyl)-2′-oxo-spiro[piperidine-4,3′-pyrrolo[2,3-c]pyridin]-1′(2′H)-yl]-methyl}-1H-benzimidazol-1-yl)butanenitrile] stands 0.0794 nM; under `N#CCCCn1c(CN2C(=O)C3(CCS(=O)(=O)CC3)c3ccncc32)nc2cc(Cl)ccc21` [Compound 108, 4-{5-Chloro-2-[(1′,1′-dioxido-2-oxo-2′,3′,5′,6′,-tetrahydro-spiro[pyrrolo[2,3-c]pyridine-3,4′-thiopyran]-1(2H)-yl)-methyl]-1H-benzimidazol-1-yl}butanenitrile], 0.871 nM; under `N#CCCCn1c(CN2C(=O)C3(CC(O)C3)c3ccccc32)nc2cc(Cl)ccc21` (stereo not drawn) [Compound 109, 4-{5-Chloro-2-[(3-hydroxy-2′-oxospiro[cyclobutane-1,3′-indol]-1′(2′H)-yl)methyl]-1H-benzimidazol-1-yl}butanenitrile], 0.191 nM.
Regarding `N#CCCCn1c(COC2CC3(C2)C(=O)N(Cc2nc4cc(Cl)ccc4n2CCCC#N)c2ccccc23)nc2cc(Cl)ccc21` [Compound 110, 4-(5-chloro-2-(((1S,3S)-1′-((5-chloro-1-(3-cyanopropyl)-1H-benzo[d]imidazol-2-yl)methyl)-2′-oxospiro[cyclobutane-1,3′-indoline]-3-yloxy)methyl)-1H-benzo[d]imidazol-1-yl)butanenitrile], under setting [1], the EC50 was 1.45 nM.
Same read-out and setting: under `NS(=O)(=O)N1CCC2(CC1)C(=O)N(Cc1cc3cc(Cl)ccc3n1CCCCF)c1cnccc12` [Compound 111, 1′-{[5-Chloro-1-(4-fluorobutyl)-1H-indol-2-yl]methyl}-2′-oxo-1′,2′-dihydro-1H-spiro[piperidine-4,3′-pyrrolo[2,3-c]-pyridine]-1-sulfonamide] stands 0.123 nM; under `N#CCCCn1c(CN2C(=O)C3(CCN(S(=O)(=O)C4CC4)CC3)c3ccncc32)nc2cc(Cl)ccc21` [Compound 112, 4-(5-Chloro-2-{[1-(cyclopropylsulfonyl)-2′-oxospiro-[piperidine-4,3′-pyrrolo[2,3-c]pyridin]-1′(2′H)-yl]methyl}-1H-benzimidazol-1-yl)butanenitrile], 0.0251 nM; under `CC(C)(C)OC(=O)N1CCC2(CC1)C(=O)N(Cc1cc3ccccc3n1CCCC(F)(F)F)c1cnccc12` [Compound 113, tert-Butyl 2′-oxo-1′-{[1-(4,4,4-trifluorobutyl)-1H-indol-2-yl]methyl}-1′,2′-dihydro-1H-spiro[piperidine-4,3′-pyrrolo[2,3-c]pyridine]-1-carboxylate], 66.1 nM.
As for `CCOP(=O)(OCC)N1CCC2(CC1)C(=O)N(Cc1nc3cc(Cl)ccc3n1CCCC#N)c1cnccc12` [Compound 115, Diethyl (1′-{[5-chloro-1-(3-cyanopropyl)-1H-benzimidazol-2-yl]methyl}-2′-oxo-1′,2′-dihydro-1H-spiro[piperidine-4,3′-pyrrolo[2,3-c]pyridin]-1-yl)phosphonate], the EC50 (read-out: RSV-wt_pEC50) was 0.0692 nM.
With `CC(O)(C(=O)N1CCC2(CC1)C(=O)N(Cc1nc3cc(Cl)ccc3n1CCCC#N)c1cnccc12)C(F)(F)F` (stereo not drawn) [Compound 116, 4-(5-Chloro-2-{[2′-oxo-1-(3,3,3-trifluoro-2-hydroxy-2-methylpropanoyl)spiro[piperidine-4,3′-pyrrolo[2,3-c]pyridin]-1′(2′H)-yl]methyl}-1H-benzimidazol-1-yl)butanenitrile], the EC50 under setting [1] was 0.0708 nM.
As for `CNC(=O)O[C@H]1C[C@@]2(C1)C(=O)N(Cc1cc3cc(Cl)ccc3n1CCCCF)c1ccccc12` [Compound 120, (1r,3r)-1′-((5-chloro-1-(4-fluorobutyl)-1H-indol-2-yl)methyl)-2′-oxospiro[cyclobutane-1,3′-indolin]-3-yl methylcarbamate], the EC50 under setting [1] was 2.4 nM.
As to `CC(C)(O)C(=O)N1CC[C@@]2(C1)C(=O)N(Cc1nc3cc(Cl)ccc3n1CCCS(C)(=O)=O)c1ccccc12` [Compound 121, (R)-1-({5-Chloro-1-[3-(methylsulfonyl)propyl]-1H-benzimidazol-2-yl}methyl)-1′-(2-hydroxy-2-methylpropanoyl)spiro[indole-3,3′-pyrrolidin]-2(1H)-one], under setting [1], the EC50 is 8.51 nM.
The same measure, in the same setting: with `CC(C)(O)C(=O)N1CC[C@]2(C1)C(=O)N(Cc1nc3cc(Cl)ccc3n1CCCS(C)(=O)=O)c1ccccc12` [Compound 122, (S)-1-((5-chloro-1-(3-(methylsulfonyl)propyl)-1H-benzo[d]imidazol-2-yl)methyl)-1′-(2-hydroxy-2-methylpropanoyl)spiro[indoline-3,3′-pyrrolidin]-2-one] the figure was 8.32 nM; with `CNC(=O)O[C@H]1C[C@@]2(C1)C(=O)N(Cc1cc3cc(Cl)ccc3n1CCCC#N)c1ccccc12` [Compound 123, (1r,3r)-1′-((5-chloro)-1-(3-cyanopropyl)-1H-indol-2-yl)methyl)-2′-oxospiro[cyclobutane-1,3′-indolin]-3-yl methylcarbamate], 0.339 nM.
For the compound `N#CCCCn1c(CN2c3ccccc3[C@]3(C[C@H](NC(=O)OC4CC4)C3)C2=O)nc2cc(Cl)ccc21` [Compound 125, cyclopropyl ((1s,3s)-1′-((5-chloro-1-(3-cyanopropyl)-1H-benzo[d]imidazol-2-yl)methyl)-2′-oxospiro[cyclobutane-1,3′-indolin]-3-yl)carbamate], the EC50 under setting [1] is 0.288 nM.
Same read-out and setting: with `N#CCCCn1c(CN2c3ccccc3[C@]3(C[C@@H](NC(=O)OC4CC4)C3)C2=O)nc2cc(Cl)ccc21` [Compound 126, cyclopropyl ((1r,3r)-1-((5-chloro-1-(3-cyanopropyl)-1H-benzo[d]imidazol-2-yl)methyl)-2′-oxospiro[cyclobutane-1,3′-indolin]-3-yl)carbamate] the figure was 0.257 nM; with `N#CCCCn1c(CN2C(=O)C3(CN(C(=O)[C@H](O)CO)C3)c3ccccc32)cc2cc(Cl)ccc21` [Compound 131, (R)-4-(5-chloro-2-((1-(2,3-dihydroxypropanoyl)-2′-oxospiro[azetidine-3,3′-indolin]-1′-yl)methyl)-1H-indol-1-yl)butanenitrile], 0.427 nM.
Take `N#CCCCn1c(CN2C(=O)C3(CCN(C(=O)OC4CC4)CC3)c3ccncc32)cc2cc(Cl)ccc21` [Compound 132, Cyclopropyl 1′-{[5-chloro-1-(3-cyanopropyl)-1H-indol-2-yl]methyl}-2′-oxo-1′,2′-dihydro-1H-spiro[piperidine-4,3′-pyrrolo[2,3-c]pyridine]-1-carboxylate]: the EC50 under setting [1] was 0.0646 nM.
Take `CS(=O)(=O)CCCn1c(CN2c3ccccc3[C@]3(C[C@@H](OC(=O)N4CCOCC4)C3)C2=O)nc2cc(Cl)ccc21` [Compound 133, (1r,3r)-1′-((5-chloro-1-(3-(methylsulfonyl)propyl)-1H-benzo[d]imidazol-2-yl)methyl)-2′-oxospiro[cyclobutane-1,3′-indolin]-3-yl morpholine-4-carboxylate]: the EC50 under setting [1] was 0.141 nM.
Same read-out and setting: under `CS(=O)(=O)CCCn1c(CN2C(=O)C3(CNC3)c3ccccc32)cc2cc(Cl)ccc21` [Compound 134, 1′-({5-Chloro-1-[3-(methylsulfonyl)propyl]-1H-indol-2-yl}methyl)spiro[azetidine-3,3′-indol]-2′(1′H)-one] stands 2 nM; under `COC(=O)N[C@H]1C[C@]2(C1)C(=O)N(Cc1nc3cc(Cl)ccc3n1CCCC#N)c1ccccc12` [Compound 135, methyl ((1s,3s)-1′-((5-chloro-1-(3-cyanopropyl)-1H-benzo[d]imidazol-2-yl)methyl)-2′-oxospiro[cyclobutane-1,3′-indolin]-3-yl)carbamate], 0.0955 nM; under `COC(=O)N[C@H]1C[C@@]2(C1)C(=O)N(Cc1nc3cc(Cl)ccc3n1CCCC#N)c1ccccc12` [Compound 136, methyl ((1r,3r)-1′-((5-chloro-1-(3-cyanopropyl)-1H-benzo[d]imidazol-2-yl)methyl)-2′-oxospiro[cyclobutane-1,3′-indolin]-3-yl)carbamate], 0.245 nM.
For `N#CCCCn1c(CN2C(=O)C3(CN(C(=O)C4(O)CC4)C3)c3ccccc32)cc2cc(Cl)ccc21` [Compound 137], the EC50 under setting [1] was 0.107 nM.
Same read-out and setting: with `CC(C)(O)C(=O)N1CCC2(C1)C(=O)N(Cc1nc3cc(Cl)ccc3n1CCCS(C)(=O)=O)c1ccccc12` (stereo not drawn) [Compound 138, 1-((5-chloro-1-(3-(methylsulfonyl)propyl)-1H-benzo[d]imidazol-2-yl)methyl)-1′-(2-hydroxy-2-methylpropanoyl)spiro[indoline-3,3′-pyrrolidlin]-2-one] the figure was 2.14 nM; with `N#CCCCn1c(CN2c3ccccc3[C@]3(C[C@@H](N)C3)C2=O)nc2cc(Cl)ccc21` [Compound 148, 4-(2-(((1r,3r)-3-amino-2′-oxospiro[cyclobutane-1,3′-indolin]-1′-yl)methyl)-5-chloro-1H-benzo[d]imidazol-1-yl)butanenitrile], 4.68 nM.
The same measure, in the same setting: under `N#CCCCn1c(CN2c3ccccc3[C@]3(C[C@H](N)C3)C2=O)nc2cc(Cl)ccc21` [Compound 149, 4-(2-(((1s,3s)-3-amino-2′-oxospiro[cyclobutane-1,3′-indolin]-1′-yl)methyl)-5-chloro-1H-benzo[d]imidazol-1-yl)butanenitrile] stands 1.2 nM.

The values are drawn from patent publication US9617289B2, “RSV antiviral compounds” (JANSSEN R&D IRELAND, priority 2012, dated 2017).
